For 4 compounds, Intraperitonal score and Subcutaneous score results are on record in ChEMBL document CHEMBL1132656, “Design of highly active analogues of the pyrrolo[1,2-a]benzimidazole antitumor agents” (1999).

The species entered for assay [1] is Mus musculus. Nature of the assay: The compound was tested for its ability to get to the tumor site after indicates that there is a percent T/C of 50 or < 50(tumor mass 50% or < the control)]. Format: functional. On the set-up: scale not given here.
The test system of assay [2] is Mus musculus. Nature of the assay: The compound was tested for its ability to get to the tumor site after subcutaneous administration [Score of 2 indicates that there is a percent T/C of 50 or < 50(tumor mass 50% or < the control)]. Format: functional.

Compound `CC(=O)N[C@H]1CCn2c1nc1c2C(=O)C(C)=C(N2CC2)C1=O` returned an Intraperitonal score in the assay filed under Mus musculus [1] of 38. Moreover, the Subcutaneous score in the assay with Mus musculus [2] is recorded as 14.
In the assay listed under Mus musculus [1], `CC1=C(N2CC2)C(=O)c2nc3n(c2C1=O)CCC3OC(N)=O` (stereo not drawn) displayed an Intraperitonal score of 24. In the assay with Mus musculus [2], this compound showed a Subcutaneous score of 6.
For the compound `CC(=O)NC1CCn2c1nc1c2C(=O)C(C)=C(N2CC2)C1=O` (stereo not drawn), in the assay listed under Mus musculus [1], the Intraperitonal score was 46. In the assay on Mus musculus [2], this compound displayed a Subcutaneous score of 6.
With `CC(=O)OC1CCn2c1nc1c2C(=O)C(C)=C(N2CC2)C1=O` (stereo not drawn), in the assay filed under Mus musculus [1], the Intraperitonal score is 40. Besides, the Subcutaneous score in the assay with Mus musculus [2] is listed as 8.
